From patent publication US11034659B2, “Pyrimidine derivative” (Daiichi Sankyo Company, Limited, priority 2016, dated 2021) come the findings set out here.

Counter-ions that a name gives are not always drawn.

One test relates to CuFi-1 cells. The experiment in a line: Secretory activity for chloride ions (MQAE fluorescence) in CuFi-1 cells. Format: cell-based. Particulars: CuFi-1 cells, zinc final concentration 10 μM, hydrochloride. The procedure:
Measurement of the secretory activity for chloride ions was performed in accordance with a previous report (West and Molloy, 1996). CuFi-1 cells were plated on a 96 well plate in 3×10^4 cells/well and incubated for two nights. After removing the culture medium, 100 μL/well of N-(ethoxycarbonylmethyl)-6-methoxyquinolinium bromide (MQAE) (diluted with culture medium and the concentration adjusted to 5 mM) was added. After the addition of MQAE, the cells were incubated for one night so that the indicator was passively loaded. After the loading, the cells were washed two times with Assay buffer, and 100 μL/well of Assay buffer was added. The secretory capacity for chloride ions was measured using FlexStation 1 (fluorescence wavelength of Ex: 355 nm/Em: 460 nm). In order to measure the basic value, nothing was added for 34 seconds immediately after the start of the measurement. Then, at this point, 100 μL/well of the test compound and zinc (final concentration: 10 μM) diluted with Assay buffer, which is free of chloride ions, was added, and the measurement was continued for 86 seconds (total measurement time: 120 seconds). The secretory capacity for chloride ions was calculated by dividing the average of RFU values in 10 seconds between 110 seconds and 120 seconds after the start of the measurement with the average between 0 second and 34 seconds (the basic value). The secretory activity for chloride ions of the test compound (EC50 value) was calculated by obtaining the secretory capacity for chloride ions at each concentration of the serially diluted test compound, and determining a concentration of the test compound that provides a secretory capacity of 50% from two secretory capacities and concentrations sandwiching 50% of the maximum response of each compound.
One may read the EC50 as the concentration at which the effect is half-maximal. A lower EC50 goes with a more potent agent. The compound `CCNc1nc(C(=O)O)nc(C)c1Sc1ccccc1Cl` [Example 22, 5-((2-Chlorophenyl)thio)-4-(ethylamino)-6-methylpyrimidine-2-carboxylic acid hydrochloride] returned a concentration giving a half-maximal response (EC50) of 7.1 nM.

The same test, now with this note: Homo sapiens, CuFi-1, CuFi-1 cells, zinc final concentration 10 μM.
On to `CCOc1nc(C(=O)O)nc(C)c1Cc1ccc(Cl)cc1Cl` [Example 33], for which it took 18.4 nM to reach a half-maximal effect (EC50).

Turning to `Cc1nc(C(=O)O)nc(SCCO)c1Sc1ccc(Cl)cc1Cl` [Example 82], the 50% effective concentration (EC50) came out at 30.8 nM.

`CSc1nc(C(=O)O)nc(C)c1Cc1ccc(Cl)cc1Cl` [Example 75, 5-(2,4-Dichlorobenzyl)-4-methyl-6-(methylthio)pyrimidine-2-carboxylic acid] displayed an EC50 of 3.7 nM.

Turning to `CCc1nc(C(=O)O)nc(OC)c1Sc1ccc(Cl)cc1Cl` [Example 37], a half-maximal response (EC50) required 30.3 nM.

Turning to `Cc1nc(C(=O)O)nc(OCc2cccc(C#N)c2)c1Cc1ccccc1Cl` [Example 89, 5-(2-Chlorobenzyl)-4-((3-cyanobenzyl)oxy)-6-methylpyrimidine-2-carboxylic acid], the EC50 turned out to be 5.1 nM.

Compound `Cc1nc(C(=O)O)nc(C)c1Cc1ccc(Cl)cc1Cl` [Example 104] gave an EC50 of 9.9 nM.

In turn, `CCOc1nc(C(=O)O)nc(CC)c1Cc1cccc(Cl)c1F` [Example 60] returned an EC50 of 12 nM.

In turn, `Cc1nc(C(=O)O)nc(O[C@H]2C[C@H](C#N)C2)c1Cc1ccccc1Cl` [Example 91] displayed an EC50 of 13.2 nM.

On to `Cc1nc(C(=O)O)nc(CCc2cccnc2)c1Cc1ccccc1Cl` [Example 102], for which the EC50 is 5.2 nM.

With `CCNc1nc(C(=O)O)nc(C)c1Oc1ccc(Cl)cc1Cl` [Example 31], a half-maximal response (EC50) required 34.9 nM.

As to `CCNc1nc(C(=O)O)nc(C)c1Cc1ccc(Cl)cc1Cl` [Example 1, 5-(2,4-Dichlorobenzyl)-4-(ethylamino)-6-methylpyrimidine-2-carboxylic acid hydrochloride], the EC50 was found to be 9.4 nM.

In turn, `CCNc1nc(C(=O)O)nc(C)c1Sc1ccccc1C(F)(F)F` [Example 24] yielded an EC50 of 12.9 nM.

`Cc1nc(C(=O)O)nc(N)c1Cc1ccc(Cl)cc1Cl` [Example 7, 4-Amino-5-(2,4-dichlorobenzyl)-6-methylpyrimidine-2-carboxylic acid trifluoroacetate] gave a concentration for a half-maximal effect (EC50) of 41.7 nM.

For `Cc1nc(C(=O)O)nc(OCc2cccnc2)c1Cc1ccccc1Cl` [Example 93], a half-maximal effect (EC50) was put at 2.2 nM.

As to `CCOc1nc(C(=O)O)nc(CC)c1Cc1ccccc1Cl` [Example 62], the EC50 amounted to 4.9 nM.

With `CCOc1nc(C(=O)O)nc(CC)c1Cc1cccc(Cl)c1Cl` [Example 48, 5-(2,3-Dichlorobenzyl)-4-ethoxy-6-ethylpyrimidine-2-carboxylic acid], it took 9.4 nM to reach a half-maximal effect (EC50).

Regarding `CCc1nc(C(=O)O)nc(SC)c1Sc1ccc(Cl)cc1Cl` [Example 77], a half-maximal effect (EC50) was put at 14.6 nM.

For `CCN(CC)c1nc(C(=O)O)nc(C)c1Cc1ccc(Cl)cc1Cl` [Example 3, 5-(2,4-Dichlorobenzyl)-4-(diethylamino)-6-methylpyrimidine-2-carboxylic acid hydrochloride], the EC50 came to 53 nM.

In the case of `Cc1nc(C(=O)O)nc(OCc2ccc(F)cc2F)c1Cc1ccccc1Cl` [Example 100], the EC50 was 11.1 nM.

As to `CCSc1nc(C(=O)O)nc(C)c1Cc1ccc(C#N)cc1Cl` [Example 81], the EC50 came to 5.5 nM.

Turning to `COc1nc(C(=O)O)nc(C)c1Cc1ccc(C(F)(F)F)cc1Cl` [Example 68], the EC50 came out at 4 nM.

In turn, `Cc1nc(C(=O)O)nc(OC(C)C)c1Cc1ccccc1Cl` [Example 74, 5-(2-Chlorobenzyl)-4-isopropoxy-6-methylpyrimidine-2-carboxylic acid] showed an EC50 of 33.4 nM.

In the case of `CCNc1nc(C(=O)O)nc(COC)c1Cc1ccc(Cl)cc1Cl` [Example 16, 5-(2,4-Dichlorobenzyl)-4-(ethylamino)-6-(methoxymethyl)pyrimidine-2-carboxylic acid], it took 52.7 nM to reach a half-maximal effect (EC50).

The compound `CCNc1nc(C(=O)O)nc(C(C)C)c1Cc1ccc(Cl)cc1Cl` [Example 9, 5-(2,4-Dichlorobenzyl)-4-(ethylamino)-6-isopropylpyrimidine-2-carboxylic acid] gave an EC50 of 5.5 nM.

In turn, `CNc1nc(-c2nnn[nH]2)nc(C)c1Sc1ccc(Cl)cc1Cl` [Example 106] had an EC50 of 2.9 nM.

`COc1nc(C(=O)O)nc(C)c1Cc1ccccc1C(C)C` [Example 73] registered an EC50 of 35.2 nM.

The compound `CCNc1nc(C(=O)O)nc(CC)c1Sc1ccc(Cl)cc1Cl` [Example 21] yielded an EC50 of 18.6 nM.

Turning to `CCOc1nc(C(=O)O)nc(C)c1Oc1ccc(Cl)cc1Cl` [Example 35], the concentration for a half-maximal effect (EC50) is 29.3 nM.

As to `CNc1nc(-c2nnn[nH]2)nc(C)c1Cc1ccc(Cl)cc1Cl` [Example 105, 5-(2,4-Dichlorobenzyl)-N,6-dimethyl-2-(1H-tetrazol-5-yl)pyrimidin-4-amine], the EC50 came to 2.1 nM.

Compound `Cc1nc(C(=O)O)nc(NCC(=O)O)c1Cc1ccc(Cl)cc1Cl` [Example 8, 4-((Carboxymethyl)amino)-5-(2,4-dichlorobenzyl)-6-methylpyrimidine-2-carboxylic acid hydrochloride] came in with a concentration giving a half-maximal response (EC50) of 50.6 nM.

Take `COc1nc(C(=O)O)nc(C)c1Oc1ccc(Cl)cc1Cl` [Example 34]: the EC50 worked out at 80.1 nM.

Turning to `CCOc1nc(C(=O)O)nc(C)c1Cc1ccc(OC)cc1Cl` [Example 57], the midpoint of the response, the EC50, lay at 20.8 nM.

For `CCNc1nc(C(=O)O)nc(C)c1Nc1ccccc1Cl` [Example 86, 5-((2-Chlorophenyl)amino)-4-(ethylamino)-6-methylpyrimidine-2-carboxylic acid hydrochloride], the response was half-maximal at 13.1 nM (EC50).

`CNc1nc(C(=O)O)nc(C)c1Sc1ccccc1C` [Example 27] had an EC50 of 14 nM.

`CCOc1nc(C(=O)O)nc(C)c1Cc1ccc(Cl)cc1F` [Example 56] had an EC50 of 16 nM.

`CCNc1nc(C(=O)O)nc(C(C)C)c1Cc1ccccc1Cl` [Example 14, 5-(2-Chlorobenzyl)-4-(ethylamino)-6-isopropylpyrimidine-2-carboxylic acid]: a half-maximal response (EC50) required 5 nM.

Consider `Cc1nc(C(=O)O)nc(OCc2cccc(F)c2)c1Cc1ccccc1Cl` [Example 98], for which the EC50 is 13.5 nM.

In turn, `Cc1nc(C(=O)O)nc(N[C@@H](C)C(N)=O)c1Cc1ccc(Cl)cc1Cl` [Example 4, (S)-4-((1-Amino-1-oxopropan-2-yl)amino)-5-(2,4-dichlorobenzyl)-6-methylpyrimidine-2-carboxylic acid hydrochloride] came in with an EC50 of 19.6 nM.

Compound `COc1nc(C(=O)O)nc(C(C)C)c1Cc1ccc(C(F)(F)F)cc1Cl` [Example 72] registered an EC50 of 2.6 nM.

Compound `CCNc1nc(C(=O)O)nc(C)c1Sc1ccccc1Cl` [Example 18, 5-((2-Chlorophenyl)thio)-4-(ethylamino)-6-methylpyrimidine-2-carboxylic acid] had an EC50 of 4.6 nM.

On to `CCCOc1nc(C(=O)O)nc(CC)c1Cc1ccccc1Cl` [Example 64], for which the 50% effective concentration (EC50) is 14.9 nM.

Compound `CCNc1nc(C(=O)O)nc(CC)c1Cc1ccc(Cl)cc1Cl` [Example 15, 5-(2,4-Dichlorobenzyl)-4-ethyl-6-(ethylamino)pyrimidine-2-carboxylic acid] showed an EC50 of 10.8 nM.

`COc1nc(C(=O)O)nc(C)c1Cc1cccc(Cl)c1Cl` [Example 66] registered an EC50 of 17.4 nM.

In turn, `CCCc1nc(C(=O)O)nc(OC)c1Cc1ccc(Cl)cc1F` [Example 47] registered a concentration for a half-maximal effect (EC50) of 8.6 nM.

With `CNc1nc(C(=O)O)nc(C)c1Sc1ccccc1C(C)C` [Example 26], the midpoint of the response, the EC50, lay at 14.4 nM.

`Cc1nc(C(=O)O)nc(NC(C)C)c1Sc1ccccc1Cl` [Example 30] showed an EC50 of 9.5 nM.

Consider `Cc1nc(C(=O)O)nc(O[C@H]2C[C@@H](C#N)C2)c1Cc1ccccc1Cl` [Example 92], for which it took 5.1 nM to reach a half-maximal effect (EC50).

Compound `Cc1nc(C(=O)O)nc(SC(C)C)c1Sc1ccccc1Cl` [Example 83, 5-((2-Chlorophenyl)thio)-4-(isopropylthio)-6-methylpyrimidine-2-carboxylic acid hydrochloride] displayed an EC50 of 50.7 nM.

Regarding `Cc1nc(C(=O)O)nc(OCc2ccc(F)cc2)c1Cc1ccccc1Cl` [Example 97], the concentration giving a half-maximal response (EC50) was 5.7 nM.

Compound `CCc1nc(C(=O)O)nc(OC)c1Cc1cccc(F)c1Cl` [Example 44] came in with a concentration giving a half-maximal response (EC50) of 9.4 nM.

On to `CCSc1nc(C(=O)O)nc(C)c1Oc1ccc(Cl)cc1Cl` [Example 80], for which the concentration giving a half-maximal response (EC50) was 49.4 nM.

On to `Cc1nc(C(=O)O)nc(OCc2ccncc2)c1Cc1ccccc1Cl` [Example 94], for which a half-maximal response (EC50) required 2.2 nM.

`CCc1nc(C(=O)O)nc(OC)c1Cc1cccc(Cl)c1Cl` [Example 41]: the EC50 turned out to be 16.3 nM.

In turn, `CCNc1nc(C(=O)O)nc(CC)c1Sc1ccccc1Cl` [Example 20] registered an EC50 of 5.9 nM.

Turning to `CCNc1nc(C(=O)O)nc(C2CC2)c1Cc1ccc(Cl)cc1Cl` [Example 10, 4-Cyclopropyl-5-(2,4-dichlorobenzyl)-6-(ethylamino)pyrimidine-2-carboxylic acid], a half-maximal effect (EC50) was put at 7.3 nM.

`CCc1nc(C(=O)O)nc(SC)c1Cc1ccccc1Cl` [Example 78]: the EC50 was found to be 4.6 nM.

On to `COc1nc(C(=O)O)nc(C(C)C)c1Cc1ccc(Cl)cc1Cl` [Example 71], for which the midpoint of the response, the EC50, lay at 30.2 nM.

Compound `CCCOc1nc(C(=O)O)nc(C)c1Cc1ccccc1Cl` [Example 53] registered an EC50 of 15.8 nM.
